Consider 3 compounds from ChEMBL document CHEMBL5390281.

Activity calls are given as the source filed them. No cut-off for these calls is given here.

Assay type in all cases: functional, organism-based
Assay [1] deals with Mus musculus. Description: Antinociceptive activity against noxious cold stimulated-persistent inflammation model of Swiss mouse assessed as reduction in pain like behavior at 5 mg/kg, ip pretreated with compound for 40 min followed by noxious cold stimulation and measured after 3 days in the presence of naloxone by cold plate test. The note with it: time 4360.0 min.
Assay [2] concerns Mus musculus. Description: Antinociceptive activity in Swiss mouse assessed as reduction in pain like behavior of mouse in second phase at 5 mg/kg, ip pretreated for 40 min followed by formalin challenge and measured after 30 min. The note with it: time 70.0 min.
Assay [3] deals with Mus musculus. The assay can be described thus: Antinociceptive activity against noxious cold stimulated-induced persistent inflammation model of Swiss mouse assessed as reduction in pain like behavior at 5 mg/kg, ip pretreated with compound for 40 min followed by noxious cold stimulation and measured after 2 hrs by cold plate test. The note with it: time 160.0 min.
Assay [4] relates to Mus musculus. Description: Antinociceptive activity in Swiss mouse assessed as reduction in pain like behavior of mouse in first phase at 5 mg/kg, ip pretreated for 40 min followed by formalin challenge and measured after 30 min. The note with it: time 70.0 min.
In assay [5] the test system is Mus musculus. Description: Antinociceptive activity against thermal stimulated-induced persistent inflammation model of Swiss mouse assessed as increased tail flick latency at 5 mg/kg, ip pretreated with compound for 40 min followed thermal stimulation and measured after 3 days in the presence of naloxone by tail flick test. The note with it: time 4360.0 min. For orientation: Hot-plate and tail-flick tests time the reaction to a heat stimulus.

In assay [6] the test system is Mus musculus. Description: Antinociceptive activity against thermal stimulated-induced persistent inflammation model of Swiss mouse assessed as increased tail flick latency at 5 mg/kg, ip pretreated with compound for 40 mins followed by thermal induction and measured after 2 hrs by tail flick test. The note with it: time 160.0 min.
Assay [7] concerns Mus musculus. Description: Antiinflammatory activity against CFA-induced persistent inflammation model of Swiss mouse assessed as prevention in paw edema formation at 2 mg/kg, ip incubated for 40 mins by plethysmometer analysis.
In assay [8] the test system is Mus musculus. Description: Antinociceptive activity against CFA-induced persistent inflammation model of Swiss mouse assessed as prevention in CFA-induced allodynia at 2 mg/kg, ip incubated for 40 mins by von frey test.

As for `CN1CC[C@]23c4c5ccc(O)c4O[C@H]2[C@@H](O)C=C[C@H]3[C@H]1C5`, the result in the assay with Mus musculus [1] and in the assay with Mus musculus [5] was inactive. For the same compound, the outcome in the assay with Mus musculus [2], with Mus musculus [3], with Mus musculus [4] and in the assay on Mus musculus [6] was Active.
`C[C@@H]1C[C@H]2[C@@H]3CCC4=CC(=O)C=C[C@]4(C)[C@@]3(F)[C@@H](O)C[C@]2(C)[C@@]1(O)C(=O)CO`: the result in the assay on Mus musculus [7] and in the assay with Mus musculus [8] was Active.
On to `COc1ccc2c(c1)c(CC(=O)O)c(C)n2C(=O)c1ccc(Cl)cc1`, for which, in the assay on Mus musculus [2], the outcome was Active. For the same compound, the outcome in the assay with Mus musculus [4] was inactive.
